From US5296597A, “Amide derivatives of Partricin A & Partricin B” (SPA Societa' Prodotti Antibiotici S.P.A., priority 1989, dated 1994)
Values after ≈ are worked out from the molar mass of the structure shown. Read-outs that look alike come from different tables or passages of the source.

Assays:
[1] = tested on: rat erythrocytes; experiment: hemolytic power on rat erythrocytes; assay type: cell-based; conditions: for hemolytic activity, times less than unreacted partricins: relative to unreacted partricins; for EC (concentration that causes hemoglobin liberation of 50% of the total amount): rat erythrocytes, 2% suspension in BSA Ringer, 1 hour at 36, average of 2-5 experiments
Description: A further important evaluation parameter was the helomytic power: rat erytrocytes were suspended at a 2% concentration in Ringer solution containing 0.2% of bovine serum albumin, fraction V (BSA) and incubated for 1 hour at 36° C. in the presence of various amounts of the amides being investigated.

[2] = tested on: Candida albicans; experiment: antimycotic activity, minimum inhibitory concentration (MIC) on Candida albicans, liquid and solid medium; assay type: cell-based; conditions: candida albicans n. 37, 24 hours, average of 2-5 experiments
Description: (b) Sabouraud fluid medium, 24 hours at
(c) Sabouraud fluid medium + agar, 24 hours at […]

[3] = tested on: Saccharomyces cerevisiae; experiment: growth inhibition of Saccharomyces cerevisiae culture (turbidimetric); assay type: cell-based; conditions: S. cerevisiae n. 167; PYG culture medium, 6 hours at 36; average of 2-5 experiments
[4] = tested on: Trichomonas vaginalis; experiment: antiprotozoal activity, MIC on Trichomonas vaginalis; assay type: cell-based; conditions: T. vaginalis n. 6; CPLM culture medium, 72 hours; average of 2-5 experiments
[5] = background statement, in words; cited from earlier work
[6] = background statement, in words; cited from earlier work; remark: listed apart in the source
[7] = tested on: yeasts, such as Candida albicans; conditions: background statement, in words; cited from earlier work
[8] = water solubility and pH; assay type: physicochemical
[9] = Sabouraud fluid medium + agar (solid)

## 2-dimethylaminoethyl amide
[1]
  hemolytic activity, times less than unreacted partricins: 25-80 times less

## 3-dimethylaminopropyl amide
[1]
  hemolytic activity, times less than unreacted partricins: 25-80 times less

## CC1/C=C/C=C/C=C/C=C/C=C/C=C/C=C/C(O[C@H]2O[C@@H](C)[C@H](O)[C@@H](N)[C@H]2O)CC2OC(O)(CC(O)CC(O)CC(O)CC(O)CC(=O)CC(O)CC(=O)OC1C(C)CCC(O)CC(=O)c1ccc(N)cc1)CC(O)C2C(=O)O (stereo partly drawn) [Partricin B (P.B), reference compound]
[2]; [9]
  MIC: 40 ng/mL
[2]; Sabouraud fluid medium
  MIC: 40 ng/mL (≈ 0.0359 µM)
[3]
  IC50: 5 ng/mL (≈ 0.00449 µM)
[4]
  MIC: 250 ng/mL (≈ 0.225 µM)

## COC(=O)C1C(O)CC2(O)CC(O)CC(O)C(O)CCC(O)CC(O)CC(=O)OC(C)C(C)C(O)C(C)C=CC=CC=CC=CC=CC=CC=CC(OC3OC(C)C(O)C(N)C3O)CC1O2 (stereo not drawn) [amphotericin B methyl ester]
[5]
  toxicity: severe neurotoxic effects

## Partricin 3-dimethylaminopropyl amide [P. 3-dimethyl-aminopropyl amide]
[2]; [9]
  MIC: 16 ng/mL
[2]; Sabouraud fluid medium
  MIC: 10 ng/mL
[3]
  IC50: 1 ng/mL
[4]
  MIC: 500 ng/mL
[1]
  EC (concentration that causes hemoglobin liberation of 50% of the total amount): 17 µg/mL

## Partricin A 3-dimethylaminopropyl amide [P.A 3-dimethyl-aminopropyl amide]
[2]; [9]
  MIC: 8 ng/mL
[2]; Sabouraud fluid medium
  MIC: 3 ng/mL
[3]
  IC50: 0.5 ng/mL
[4]
  MIC: 500 ng/mL
[1]
  EC (concentration that causes hemoglobin liberation of 50% of the total amount): 20 µg/mL

## Partricin A N'-methyl-piperazide [P.A N'-methyl-piperazide]
[2]; [9]
  MIC: 4 ng/mL
[2]; Sabouraud fluid medium
  MIC: 1 ng/mL
[3]
  IC50: 0.4 ng/mL
[4]
  MIC: 500 ng/mL

## Partricin A allyl amide [P.A allyl amide]
[2]; [9]
  MIC: 10 ng/mL
[2]; Sabouraud fluid medium
  MIC: 6 ng/mL
[3]
  IC50: 0.8 ng/mL
[4]
  MIC: 250 ng/mL

## Partricin A ethyl amide [P.A ethyl amide]
[2]; [9]
  MIC: 10 ng/mL
[2]; Sabouraud fluid medium
  MIC: 9 ng/mL
[3]
  IC50: 1 ng/mL
[4]
  MIC: 500 ng/mL

## Partricin A n-pentyl amide [P.A n-penthyl amide]
[2]; [9]
  MIC: 80 ng/mL
[2]; Sabouraud fluid medium
  MIC: 20 ng/mL
[3]
  IC50: 3 ng/mL
[4]
  MIC: 2000 ng/mL

## Partricin A n-propyl amide [P.A n-propyl amide]
[2]; [9]
  MIC: 16 ng/mL
[2]; Sabouraud fluid medium
  MIC: 8 ng/mL
[3]
  IC50: 1 ng/mL
[4]
  MIC: 500 ng/mL

## Partricin B 2-dimethylaminoethyl amide [P.B 2-dimethyl-aminoethyl-amide]
[2]; [9]
  MIC: 10 ng/mL
[2]; Sabouraud fluid medium
  MIC: 3 ng/mL
[3]
  IC50: 1 ng/mL
[4]
  MIC: 500 ng/mL

## Partricin B methyl amide [P.B methyl amide]
[2]; [9]
  MIC: 8 ng/mL
[2]; Sabouraud fluid medium
  MIC: 7 ng/mL
[3]
  IC50: 1 ng/mL
[4]
  MIC: 250 ng/mL

## Partricin methyl amide [P. methy amide]
[2]; [9]
  MIC: 7 ng/mL
[2]; Sabouraud fluid medium
  MIC: 5 ng/mL
[3]
  IC50: 1 ng/mL
[4]
  MIC: 250 ng/mL
[1]
  EC (concentration that causes hemoglobin liberation of 50% of the total amount): 7.5 µg/mL

## Partricin n-dodecyl amide [P. n-dodecyl amide]
[2]; [9]
  MIC: 800 ng/mL
[2]; Sabouraud fluid medium
  MIC: 450 ng/mL
[3]
  IC50: 50 ng/mL
[4]
  MIC: > 10000 ng/mL
[1]
  EC (concentration that causes hemoglobin liberation of 50% of the total amount): > 32 µg/mL

## mepartricin
[6]
  water solubility: insufficient water solubility
[7]
  antimycotic activity: increased antimycotic activity
[5]
  action selectivity: greater action selectivity
  toxicity: reduced toxicity, but still exhibits marked toxic effects

## methyl amide
[1]
  hemolytic activity, times less than unreacted partricins: 25-80 times less

## partricin A 2-dimethylaminoethyl amide diaspartate
[8]; in words
  water solubility: water-soluble
[8]; slightly acidic reaction
  pH (reaction of the salt): ~5

## partricin A 2-dimethylaminoethylamide [P.A 2-dimethyl-aminoethyl amide]
[2]; [9]
  MIC: 8 ng/mL
[2]; Sabouraud fluid medium
  MIC: 2 ng/mL
[3]
  IC50: 0.4 ng/mL
[4]
  MIC: 500 ng/mL
[1]
  EC (concentration that causes hemoglobin liberation of 50% of the total amount): 25 µg/mL

## partricin A methyl amide [P.A methyl amide]
[2]; [9]
  MIC: 8 ng/mL
[2]; Sabouraud fluid medium
  MIC: 5 ng/mL
[3]
  IC50: 0.7 ng/mL
[4]
  MIC: 250 ng/mL
[1]
  EC (concentration that causes hemoglobin liberation of 50% of the total amount): 8 µg/mL
